“Also recorded” adds a separate entry of the source.
How the values were obtained:
[1] = Blood/plasma amino acid concentrations in vigabatrin-treated rats; assay type: in vivo, rat
Description: (§1) As described previously (Duboc et al., 2004), Wistar rats Rj Wi IOPS Han and Balb c mice were purchased from Janvier Breeding Center (Le Genest St Isle, France) at 7 weeks. VGB was dissolved in 0.9% NaCl at a concentration of 125 mg/ml. It was administered at 40 mg (125 mg/ml, 0.32 ml) by daily intraperitoneal injection for 45 or 65 days and at 3 mg (60 mg/ml, 0.05 ml) to mice for 29 days (daily dose of about 200 mg/kg in rats and 150 mg/kg in mice). Vitamin B6 (active form) was administered at a dose of 1 mM/kg (solution 154.46 mg/ml) whereas taurine was provided in the drinking water at 0.1 mol/l.
After 65 days of injection, rats were anesthetized for blood sampling. Anesthesia was induced as described above. Under anesthesia an indwelling catheter was placed in the carotid artery. This method allowed obtaining a single, large, good quality blood sample. A 1 mL blood sampling was taken for each rat in a heparinized blood sampler, immediately centrifuged and frozen at −80° C. Automated amino acid ion chromatography (Pasteur Cerba, France) was used for the quantitative determination of total and free amino acids in the samples.
As described previously (Duboc, A., et al. Vigabatrin, the GABA-transaminase inhibitor, damages cone photoreceptors in rats. Annals of neurology Vol. 55, 695-705 (2004).), Wistar rats Rj Wi IOPS Han or BALB/c mice were purchased from Janvier (Le Genest-St-Isle, France) at between six and seven weeks of age. VGB dissolved in 0.9% NaCl was administered at 40 mg (125 mg/ml, 0.32 ml) to rats by daily intraperitoneal injection for 45 or 65 days and at 3 mg (60 mg/ml, 0.05 ml) to mice for 29 days. These daily doses (rats: 200 mg/kg; mice: 150 mg/kg) are in-line with those described for the treatment of epilepsy in animals (Andre, V., Ferrandon, A., Marescaux, C. & Nehlig, A. Vigabatrin protects against hippocampal damage but is not antiepileptogenic in the lithium-pilocarpine model of temporal lobe epilepsy. Epilepsy research Vol. 47, 99-117 (2001)) or in humans (adult patients: 1-6 mg/kg; children: 50-75 mg/kg; or infants: 100-400 mg/kg) (Chiron, C., Dumas, C., Jambaque, I., Mumford, J. & Dulac, O. Randomized trial comparing vigabatrin and hydrocortisone in infantile spasms due to tuberous sclerosis. Epilepsy research Vol. 26, 389-395 (1997); Lux, A. L., et al. The United Kingdom Infantile Spasms Study comparing vigabatrin with prednisolone or tetracosactide at 14 days: a multicentre, randomised controlled trial. Lancet Vol. 364, 1773-1778 (2004); Aicardi, J., Mumford, J. P., Dumas, C. & Wood, S. Vigabatrin as initial therapy for infantile spasms: a European retrospective survey. Sabril IS Investigator and Peer Review Groups. Epilepsia Vol. 37, 638-642 (1996)). Taurine supplementation was given in drinking water at a concentration of 0.1M. […]

BALB/c mice [2] = assay: Retinal histology quantification in vigabatrin-treated mice; assay type: in vivo, mouse
Description: (§2) As described previously (Duboc, A., et al. Vigabatrin, the GABA-transaminase inhibitor, damages cone photoreceptors in rats. Annals of neurology Vol. 55, 695-705 (2004).), Wistar rats Rj Wi IOPS Han or BALB/c mice were purchased from Janvier (Le Genest-St-Isle, France) at between six and seven weeks of age. VGB dissolved in 0.9% NaCl was administered at 40 mg (125 mg/ml, 0.32 ml) to rats by daily intraperitoneal injection for 45 or 65 days and at 3 mg (60 mg/ml, 0.05 ml) to mice for 29 days. These daily doses (rats: 200 mg/kg; mice: 150 mg/kg) are in-line with those described for the treatment of epilepsy in animals (Andre, V., Ferrandon, A., Marescaux, C. & Nehlig, A. Vigabatrin protects against hippocampal damage but is not antiepileptogenic in the lithium-pilocarpine model of temporal lobe epilepsy. Epilepsy research Vol. 47, 99-117 (2001)) or in humans (adult patients: 1-6 mg/kg; children: 50-75 mg/kg; or infants: 100-400 mg/kg) (Chiron, C., Dumas, C., Jambaque, I., Mumford, J. & Dulac, O. Randomized trial comparing vigabatrin and hydrocortisone in infantile spasms due to tuberous sclerosis. Epilepsy research Vol. 26, 389-395 (1997); Lux, A. L., et al. The United Kingdom Infantile Spasms Study comparing vigabatrin with prednisolone or tetracosactide at 14 days: a multicentre, randomised controlled trial. Lancet Vol. 364, 1773-1778 (2004); Aicardi, J., Mumford, J. P., Dumas, C. & Wood, S. Vigabatrin as initial therapy for infantile spasms: a European retrospective survey. Sabril IS Investigator and Peer Review Groups. Epilepsia Vol. 37, 638-642 (1996)). Taurine supplementation was given in drinking water at a concentration of 0.1M. Light intensity in the animal cages ranged between 125 and 130 lux for rats and between 70 and 85 lux for mice.
Eye cups were fixed overnight at 4° C. in 4% (wt/vol) paraformaldehyde in phosphate buffered saline (PBS; 0.01M, pH 7.4). The tissue was cryoprotected in successive solutions of PBS containing 10%, 20% and 30% sucrose at 4° C., oriented along the dorso-ventral axis and embedded in OCT (Labonord, Villeneuve d′Ascq, France). Retinal sections (8-10 μm thickness) were permeabilised for five minutes in PBS containing 0.1% Triton X-100 (Sigma, St. Louis, Mo.), rinsed, and incubated in PBS containing 1% bovine serum albumin (Eurobio, Les-Ulis, France), 0.1% Tween 20 (Sigma), and 0.1% sodium azide (Merck, Fontenay-Sous-Bois, France) for two hours at room temperature. The primary antibody added to the solution was incubated for two hours at room temperature. Polyclonal antibodies were directed against VGluT1 (1:2000, Chemicon), rabbit GFAP (1/400, Dako, USA) and mouse cone arrestin (Zhu, X., et al. Mouse cone arrestin expression pattern: light induced translocation in cone photoreceptors. Molecular vision Vol. 8, 462-471 (2002)) (Luminaire junior, LUMIj, 1:20,000). Monoclonal antibodies were directed against Goa (1:2000, Chemicon). Sections were rinsed and then incubated with the secondary antibody, goat anti-rabbit IgG or rabbit anti-mouse IgG conjugated to either Alexa TM594 or Alexa TM488 (1:500, Molecular Probes, Eugene, Oreg.) for two hours. […]
(§3) For quantification, vertical sections along the dorso-ventral axis were selected at the optic nerve. Following DAPI nuclear staining, the lengths of disorganised retinal areas were measured; GFAP immunostaining was used for detection and quantificationof retinal areas with reactive gliosis. […]

Wistar rats [3] = assay: Photopic electroretinogram (ERG) in vigabatrin-treated rats; assay type: in vivo, rat
Description: as §1
(§4) ERG were recorded as described previously after the last VGB injection (Duboc et al., 2004). Anesthesia was induced by an intramuscular injection of a solution containing ketamine (100 mg/kg) and xylazine (10 mg/kg). After 10 min adaptation to a 2.5 cdm^−2 light intensity, ten recordings were obtained with flash intensity of 10 cdsm^−2 at an interstimulus interval 30 s and subsequently averaged. These photopic ERG measurements were performed after 59 days in rats and 29 days in mice.
As described previously (Duboc, A., et al. Vigabatrin, the GABA-transaminase inhibitor, damages cone photoreceptors in rats. Annals of neurology Vol. 55, 695-705 (2004).), Wistar rats Rj Wi IOPS Han or BALB/c mice were purchased from Janvier (Le Genest-St-Isle, France) at between six and seven weeks of age. VGB dissolved in 0.9% NaCl was administered at 40 mg (125 mg/ml, 0.32 ml) to rats by daily intraperitoneal injection for 45 or 65 days and at 3 mg (60 mg/ml, 0.05 ml) to mice for 29 days. […]
Photopic ERGs were recorded after the last VGB injection, as described previously (Duboc, A., et al. Vigabatrin, the GABA-transaminase inhibitor, damages cone photoreceptors in rats. Annals of neurology Vol. 55, 695-705 (2004).). […]

Wistar rats [4] = assay: Retinal histology quantification in vigabatrin-treated rats; assay type: in vivo, rat
Description: as §2, with “mice. […]” for “mice.”
as §3

BALB/c mice [5] = assay: Photopic electroretinogram (ERG) in vigabatrin-treated mice; assay type: in vivo, mouse; details: 29 days
Description: as §1, §4, §2
Photopic ERGs were recorded after the last VGB injection, as described previously (Duboc, A., et al. Vigabatrin, the GABA-transaminase inhibitor, damages cone photoreceptors in rats. Annals of neurology Vol. 55, 695-705 (2004).). Anesthesia was induced by intraperitoneal injection (0.8 to 1.2 ml/kg) of a solution containing ketamine (40 mg/ml) and xylazine (4 mg/ml Rompum). Animals were light-adapted for 10 minutes with a background light of 25 cdm^−2. Light flashes were then applied on this background light; the light intensity of the flash was 10 cdsm^−2 for the mouse experiments and for the rats maintained in darkness (FIGS. 2, 6) or 25 cdsm^−2 for other experiments (FIGS. 3, 5). Ten recordings were averaged with an interstimulus interval of 30 s.

[6] = Plasma taurine levels in infants with infantile spasms receiving VGB therapy; assay type: in vivo, human; details: for Taurine level: measured
Description: Blood samples were collected in haemolysis tubes containing heparin (14 IU/ml) and centrifuged (2200 g, 15 min). Plasma amino-acid analysis was performed by ion-exchange chromatography with nihydrin detection using a JEOL AMINOTAC analyser.
We then evaluated whether these findings have any clinical relevance in patients with epilepsy. Plasma taurine levels were reviewed retrospectively in patients presenting infantile spasms, who had received VGB treatment for at least six months in Necker Hospitals for the last 3 years. Plasma amino-acid levels are routinely measured in patients with infantile spasms as part of their etiological work-up, particularly when brain RMI is negative. Data were available in six patients (Table 2 hereunder). […] For one of these two patients (patient 2), the taurine level was measured before starting a 15 month period of VGB therapy and this taurine level was normal. In patient 6, the taurine level was in the lower part of the normal range, but this measurement could have been overestimated by the delayed blood centrifugation. Thus, taurine levels seem to be decreased in VGB-treated epileptic infants.

[7] = VGB with taurine supplementation versus without, p<0.001
[8] = supplementation in addition to vigabatrin
[9] = vigabatrin alone versus control, listed as Vigabatrin
[10] = vigabatrin alone versus control, listed as vigabatrin

## NCCS(=O)(=O)O [taurine, 2-aminoethanesulfonic acid]
[1]; taurine 0.1M in drinking water of VGB-treated rats, n=7
  Plasma levels of taurine: increased above those of control animals
BALB/c mice [2]; VGB with taurine supplementation
  Sprouting of bipolar cell dendrites: completely suppressed
BALB/c mice [2]; [7]
  Disorganisation of the outer nuclear layer (areas of retinal disorganisation): smaller areas of retinal disorganisation
BALB/c mice [2]; VGB with taurine supplementation, p<0.001
  Density of cone outer and inner segments: prevented this decrease in cone density
Wistar rats [3]; supplementation in addition to vigabatrin, versus vigabatrin alone
  Photopic ERG amplitude: decreased less than in vigabatrin alone; also recorded: greater in VGB-treated animals receiving taurine supplementation; also recorded: smaller decrease in photopic ERG amplitude
Wistar rats [4]; [7]
  GFAP immunostaining: less extensive in animals receiving taurine supplementation
Wistar rats [4]; VGB with taurine supplementation versus without, p<0.05
  Cone segment density: greater in the VGB-treated group with taurine supplementation
BALB/c mice [5]; [8]
  Photopic ERG amplitude: no longer statistically significant; also recorded: smaller decrease in photopic ERG amplitude
BALB/c mice [5]; supplementation in addition to vigabatrin, listed as Taurine
  Photopic ERG amplitude: suppressed this decrease in photopic ERG amplitude

## C=CC(N)CCC(=O)O (stereo not drawn) [VGB, 4-amino-5-hexenoic acid]
[6]; patient 1, VGB, normal 70 ± 22, delay to plasma preparation <2 h
  Taurine level: und*
[6]; patient 2, VGB, normal 70 ± 22, delay <2 h
  Taurine level: und
[6]; six patients, VGB for at least six months
  Taurine levels in VGB-treated epileptic infants (overall): decreased
[1]; VGB-treated rats, 65 days, p<0.05
  Decrease of taurine level versus control animals: 67%
[1]; VGB-treated rats, 65 days, significant
  Reduction of methionine concentration versus control animals: 22%
[1]; VGB-treated rats, 65 days, statistically significant
  Reduction of glutamic acid concentration versus control animals: 56%
BALB/c mice [2]; VGB alone
  Sprouting of bipolar cell dendrites: observed
BALB/c mice [2]; VGB alone versus control, p<0.001
  Density of cone outer and inner segments: lower densities
Wistar rats [3]; [9]
  Photopic ERG amplitude: decrease
Wistar rats [3]; [10]
  Photopic ERG amplitude: decrease in amplitude
Wistar rats [4]; VGB alone
  GFAP immunostaining: increase in GFAP immunostaining
BALB/c mice [5]; vigabatrin alone versus control
  Photopic ERG amplitude: significantly lower photopic ERG amplitude than the control group
BALB/c mice [5]; [9]
  Photopic ERG amplitude: decrease
BALB/c mice [5]; [10]
  Photopic ERG amplitude: decrease in amplitude

## Cc1ncc(COP(=O)(O)O)c(C=O)c1O [vitamin B6, pyridoxal-5′-phosphate]
BALB/c mice [5]; [8]
  Photopic ERG amplitude: reduced the decrease in photopic ERG amplitude; also recorded: smaller decrease in photopic ERG than with vigabatrin alone

From patent publication US9308260B2, “Anticonvulsive pharmaceutical compositions” (INSERM (INSTITUT NATIONAL DE LA SANTE ET DE LA RECHERCHE …, priority 2007, dated 2016)
